Here are results for 50 molecules from US20100009970A1, “COMPOSITIONS AND METHODS FOR TREATMENT OF VIRAL DISEASES” (Combinatorx (Singapore) Pte. Ltd., priority 2008, published 2010).

This assay relates to Huh7 cells expressing a subgenomic RNA replicon of Con1 (genotype 1b) sequence origin. Briefly: microbe, parasite or virus in culture. The following applies: Hepatitis C virus; for IC50: Huh-7.

Structures can show the parent of a compound that is named as a salt.

Usually IC50 stands for the concentration needed to halve the response being measured. A high value points to a need for much substance. Consider `COC(=O)Nc1nc2cc(C(=O)c3ccc(F)cc3)ccc2[nH]1` [Flubendazole, reference compound], for which the IC50 amounted to 0.173 µM.
The same measure, in the same setting: the same measure for `CC[C@@]1(O)C(=O)OCc2c1cc1n(c2=O)Cc2cc3ccccc3nc2-1` [Camptothecin, camptothecin, reference compound]: 0.026 µM; for `C=C(NC(=O)C(=C)NC(=O)c1csc(C2=N[C@@H]3c4csc(n4)[C@H]4NC(=O)c5csc(n5)[C@H]([C@](C)(O)[C@@H](C)O)NC(=O)[C@H]5CSC(=N5)/C(=C/C)NC(=O)[C@H]([C@@H](C)O)NC(=O)c5csc(n5)[C@]3(CC2)NC(=O)[C@H](C)NC(=O)C(=C)NC(=O)[C@H](C)NC(=O)[C@H]([C@@H](C)CC)N[C@@H]2C=Cc3c([C@H](C)O)cc(nc3[C@H]2O)C(=O)O[C@@H]4C)n1)C(N)=O` [Thiostrepton, reference compound]: 3.84 µM.
For `COc1ccc2c(c1OC)C(=O)O[C@@H]2[C@H]1c2c(cc3c(c2OC)OCO3)CCN1C` [Noscapine, reference compound], half-maximal inhibition (IC50) required 15.8 µM.
`CSc1ccc(Oc2ccccc2CN(C)C)cc1` [Compound 35, N,N-dimethyl(2-(4-(methylthio)phenoxy)phenyl)methanamine]: the Emax (Huh-7, read-out: Max Effect@CC30 (inhibition)) stood at 48%.
On to `CC1=C(/C=C/C(C)=C/C=C/C(C)=C/C=C/C=C(C)/C=C/C=C(C)/C=C/C2=C(C)CCCC2(C)C)C(C)(C)CCC1` [Beta-Carotene], for which the half-inhibitory concentration (IC50) turned out to be 18.5 µM.
`CN(C)CCCOc1nn(Cc2ccccc2)c2ccccc12` [Benzydamine (e.g., hydrochloride), benzydamine, reference compound] returned an IC50 of 9 µM.
Same read-out and setting: the same measure for `N[C@H](Cc1cc(I)c(Oc2cc(I)c(O)c(I)c2)c(I)c1)C(=O)O` [Dextrothyroxine (e.g., sodium), dextrothyroxine, reference compound]: 5 µM; for `O=c1cc(N2CCOCC2)oc2c(-c3ccccc3)cccc12` [LY 294002, reference compound]: 3.4 µM; for `Nc1nc[nH]n1` [Amitrole]: 14.6 µM.
Consider `CC(C=NNC(=N)N)=NNC(=N)N` [Methylglyoxal bis(guanylhydrazone) dihydrochloride hydrate, reference compound], for which the IC50 came out at 10.8 µM.
`C/C=C(/C(=C/C)c1ccc(O)cc1)c1ccc(O)cc1` [Dienestrol, reference compound] yielded an IC50 of 16.5 µM.
Same read-out and setting: the same measure for `CC(CN(C)C)CN1c2ccccc2CCc2ccccc21` (centres unmarked) [Trimipramine (e.g., maleate), Trimipramine, reference compound]: 15.6 µM; for `CC(C)(C)C(=O)OCOP(=O)(COCCn1cnc2c(N)ncnc21)OCOC(=O)C(C)(C)C` [Adefovir (e.g., dipivoxil), adefovir dipivoxil, reference compound]: 0.319 µM; for `CCN(CC)CCCC(C)Nc1ccnc2cc(Cl)ccc12` (centres unmarked) [Chloroquine (e.g., phosphate), Chloroquine, reference compound]: 4.78 µM.
Same read-out and setting: the same measure for `CC[C@@H](C(=O)O)[C@@H]1O[C@@H]([C@@H](C)[C@H](O)[C@H](C)C(=O)[C@H](CC)[C@H]2O[C@]3(C=C[C@@H](O)[C@]4(CC[C@@](C)([C@H]5CC[C@](O)(CC)[C@H](C)O5)O4)O3)[C@H](C)C[C@@H]2C)[C@@H](C)C[C@@H]1C` [Narasin, reference compound]: 0.176 µM.
The molecule `CCOC(=O)c1ccc(N)cc1` [Benzocaine, reference compound] registered a half-inhibitory concentration (IC50) of 13.9 µM.
The same measure, in the same setting: the same measure for `C[C@@]1(CO)[C@H](O)CC[C@@]2(C)[C@H]1CC[C@H]1C[C@@H]3C[C@@]12CC[C@]3(O)CO` [Aphidicolin, aphidicolin, reference compound]: 1.71 µM; for `CC(C(O)c1ccc(O)cc1)N1CCC(Cc2ccccc2)CC1` (centres unmarked) [Ifenprodil (e.g., tartrate), Ifenprodil, reference compound]: 4.68 µM; for `O=CN/C=C/c1cc(O)ccc1O` [Erbstatin, reference compound]: 7.63 µM.
As for `COc1cc(C(=O)OCCCN2CCCN(CCCOC(=O)c3cc(OC)c(OC)c(OC)c3)CC2)cc(OC)c1OC` [Dilazep (e.g., dihydrochloride), Dilazep, reference compound], the IC50 was 13.9 µM.
Still for that read-out and setting: the same measure for `CC[C@H](C)C(=O)O[C@H]1CCC=C2C=C[C@H](C)[C@H](CC[C@@H]3C[C@@H](O)CC(=O)O3)[C@H]21` [Mevastatin, reference compound]: 3.45 µM.
In the case of `COC[C@H]1OC(=O)c2coc3c2[C@@]1(C)C1=C(C3=O)[C@@H]2CCC(=O)[C@@]2(C)C[C@H]1OC(C)=O` [Wortmannin, wortmannin, reference compound], the IC50 was found to be 3.16 µM.
Still for that read-out and setting: the same measure for `N[C@@H](Cc1cc(I)c(Oc2cc(I)c(O)c(I)c2)c(I)c1)C(=O)O` [Levothyroxine (e.g., sodium), Levothyroxine, reference compound]: 3.79 µM; for `COC(=O)[C@H]1[C@H]2C[C@@H]3c4[nH]c5cc(OC)ccc5c4CCN3C[C@H]2C[C@@H](OC(=O)/C=C/c2cc(OC)c(OC)c(OC)c2)[C@@H]1OC` [Rescinnamine, reference compound]: 7.88 µM; for `Nc1n[n+]([O-])c2ccccc2[n+]1[O-]` [Tirapazamine, reference compound]: 1.83 µM.
Consider `CC(C)n1c(/C=C/C(O)CC(O)CC(=O)O)c(-c2ccc(F)cc2)c2ccccc21` (centres unmarked) [Fluvastatin (e.g., sodium), fluvastatin, reference compound], for which it took 22.2 µM to reach half-maximal inhibition (IC50).
Still for that read-out and setting: the same measure for `CC[C@@]1(O)C(=O)OCc2c1cc1n(c2=O)Cc2cc3c(CN(C)C)c(O)ccc3nc2-1` [Topotecan (e.g., hydrochloride), topotecan, reference compound]: 0.095 µM; for `C/C=C/C/C=C/CCC(=O)[C@H]1O[C@H]1C(N)=O` [Cerulenin, reference compound]: 16.2 µM; for `C[C@]12CC[C@@H]3c4ccc(O)cc4C[C@@H](CCCCCCCCC[S+]([O-])CCCC(F)(F)C(F)(F)F)[C@H]3[C@@H]1CC[C@@H]2O` (some centres unmarked) [Fulvestrant, reference compound]: 3.05 µM.
On to `N=C(NCc1ccccc1)NC(=O)c1nc(Cl)c(N)nc1N` [Benzamil (e.g., HCl), benzamil, reference compound], for which the IC50 worked out at 4.73 µM.
Turning to `CCc1c2c(nc3ccc(OC(=O)N4CCC(N5CCCCC5)CC4)cc13)-c1cc3c(c(=O)n1C2)COC(=O)[C@]3(O)CC` [Irinotecan (e.g., hydrochloride), irinotecan (CPT-11), reference compound], the IC50 was 1.56 µM.
Still for that read-out and setting: the same measure for `Nc1ccc(/N=N/c2ccccc2)c(N)n1` [Phenazopyridine (e.g., hydrochloride), Phenazopyridine, reference compound]: 7.85 µM.
For `C/C=C(/C)C(=O)O[C@H]1C(C)=C2[C@H]([C@@H]1OC(=O)CCCCCCC)[C@@](C)(OC(C)=O)C[C@H](OC(=O)CCC)[C@@]1(O)[C@H]2OC(=O)[C@@]1(C)O` [Thapsigargin, reference compound], half-maximal inhibition (IC50) required 0.0113 µM.
Regarding `CN1C[C@H](C(=O)N[C@]2(C)O[C@@]3(O)[C@@H]4CCCN4C(=O)[C@H](Cc4ccccc4)N3C2=O)C[C@@H]2c3cccc4[nH]cc(c34)C[C@H]21` [Dihydroergotamine (e.g., mesylate), dihydroergotamine, reference compound], the half-inhibitory concentration (IC50) turned out to be 22.8 µM.
On the same count and under the same terms, the same measure for `CN(Cc1cc(Br)cc(Br)c1N)C1CCCCC1` [Bromhexine, reference compound]: 14.2 µM; for `OC(CCCN1CCCCC1)(c1ccccc1)c1ccccc1` [Diphenidol (e.g., hydrochloride), Diphenidol, reference compound]: 25.4 µM.
Same read-out and setting: the same measure for `COc1cc(NC(=O)Nc2cccc(CNC(=O)O[C@H]3CCOC3)c2)ccc1-c1cnco1` [Merimepodib (VX-497), merimepodib, reference compound]: 0.475 µM; for `CO[C@H]1/C=C/O[C@@]2(C)Oc3c(C)c(O)c4c(c3C2=O)C2=NC3(CCN(CC(C)C)CC3)NC2=C(NC(=O)/C(C)=C\C=C\[C@H](C)[C@H](O)[C@@H](C)[C@@H](O)[C@@H](C)[C@H](OC(C)=O)[C@@H]1C)C4=O` [Rifabutin, reference compound]: 17.2 µM.
For `N[C@@H](Cc1ccc(N(CCCl)CCCl)cc1)C(=O)O` [Melphalan, reference compound], the half-maximal inhibitory concentration (IC50) came out at 5.94 µM.
`COc1ccc2cc1Oc1ccc(cc1)C[C@H]1c3c(cc4c(c3Oc3cc5c(cc3OC)CCN(C)[C@@H]5C2)OCO4)CCN1C` [Cepharanthine, reference compound] yielded a 50% inhibitory concentration (IC50) of 19.5 µM.
In turn, `COc1ccc(O)cc1` [Mequinol, reference compound] registered an IC50 of 18.7 µM.
On the same count and under the same terms, the same measure for `CNC(=O)Oc1cccc2ccccc12` [Carbaryl]: 9.65 µM; for `CC(=O)O[C@H]1C(=O)[C@@]2(C)[C@H]([C@H](OC(=O)c3ccccc3)[C@]3(O)C[C@H](OC(=O)[C@H](O)[C@@H](NC(=O)c4ccccc4)c4ccccc4)C(C)=C1C3(C)C)[C@]1(OC(C)=O)CO[C@@H]1C[C@@H]2O` [Paclitaxel, reference compound]: 0.0092 µM.
On the same count and under the same terms, the same measure for `CN1[C@@H]2CC[C@H]1C[C@@H](OC1c3ccccc3CCc3ccccc31)C2` [Deptropine (e.g., citrate), deptropine, reference compound]: 11.1 µM; for `O=C1c2ccccc2-[n+]2ccc3c([nH]c4ccccc43)c21` [Fascaplysin, reference compound]: 0.444 µM.
`C[C@]12Cc3c[nH]nc3C[C@@H]1CC[C@@H]1[C@@H]2CC[C@@]2(C)[C@H]1CC[C@]2(C)O` [Stanozolol, stanozolol, reference compound] gave a half-maximal inhibitory concentration (IC50) of 15.2 µM.
Same read-out and setting: the same measure for `CN(C)CCOC(C)(c1ccccc1)c1ccc(Cl)cc1` (centres unmarked) [Chlorphenoxamine (e.g., hydrochloride), chlorphenoxamine, reference compound]: 16.2 µM; for `CN1CCCC(n2nc(Cc3ccc(Cl)cc3)c3ccccc3c2=O)CC1` (centres unmarked) [Azelastine, azelastine, reference compound]: 6.22 µM.
Same read-out and setting: the same measure for `CCN(CC)CCO[C@H]1CC[C@@]2(C)C(=CC[C@@H]3[C@@H]2CC[C@]2(C)C(=O)CC[C@@H]32)C1` [Example U18666A, reference compound]: 0.02 µM.
